The source of these data is US20060270656A1, “Substituted piperazines of azepines, oxazepines and thiazepines” (ELI LILLY AND COMPANY, priority 2003, published 2006).

Structures can show the parent of a compound that is named as a salt.

For orientation: melting point means the temperature, or range, at which the solid turns liquid. As for `COCC[C@H]1CN(C2=Nc3ccccc3Sc3sc(C(C)C)cc32)CCN1.Cl.Cl`, the melting point is 149 to 152 °C (dec.).
As to `CCc1cc2c(s1)Sc1ccccc1N=C2N1CCN(C)[C@@H](CCOC)C1.Cl.Cl`, the melting point lay within 181 to 187 °C.
Take `COCC[C@H]1CN(C2=Nc3ccccc3Sc3sc(C(C)C)cc32)CCN1C.Cl.Cl`: the melting point is 143 to 147 °C (dec.).
Take `CN1CCN(C2=Nc3ccccc3Sc3ccccc32)C[C@@H]1CCc1ccccc1`: the melting point was 44 to 54 °C.
In the case of `c1ccc(C[C@@H]2CN(C3=Nc4ccccc4Sc4ccccc43)CCN2)cc1`, the melting point fell in the range of 56 to 69 °C.
Compound `CN1CCN(C2=Nc3ccccc3Sc3ccccc32)C[C@H]1Cc1ccccc1` gave a melting point of 46 to 63 °C.
The value for `c1ccc(CC[C@H]2CN(C3=Nc4ccccc4Sc4ccccc43)CCN2)cc1` was 48 to 59 °C.
In turn, `c1ccc(C[C@H]2CN(C3=Nc4ccccc4Sc4ccccc43)CCN2)cc1` displayed a melting point of 54 to 71 °C.
In turn, `CN1CCN(C2=Nc3ccccc3Sc3ccccc32)C[C@@H]1Cc1ccccc1` yielded a melting point of 48 to 64 °C.
In turn, `CCc1nc2c(s1)Sc1ccccc1N=C2N1CCN(C)[C@@H](CCc2ccc(OC)cc2)C1.Cl` showed a melting point of 129 to 130 °C.
For `CCc1nc2c(s1)Sc1ccccc1N=C2N1CCN(C)[C@@H](CCc2cccc(F)c2)C1.Cl`, the melting point was in the range of 133 to 135 °C.
Consider `CC(=O)c1nc2c(s1)Sc1ccccc1N=C2N1CCN(C)[C@@H](CCc2cccc(F)c2)C1.Cl.Cl`, for which the melting point lay within 130 to 132 °C.
The result for `COCC[C@H]1CN(C2=Nc3ccccc3Sc3sc(C(C)=O)nc32)CCN1C.Cl.Cl` reads 138 to 140 °C; that for `COCC[C@H]1CN(C2=Nc3ccccc3Sc3scnc32)CCN1` (as salt: hydrochloride), 184 to 186 °C.
The value for `COCC[C@H]1CN(C2=Nc3ccccc3Sc3scnc32)CCN1C` (as salt: hydrochloride) was 146 to 148 °C.
